{
  "source": "ChEMBL document CHEMBL3600300",
  "about": "“Cytotoxic triterpene saponins from Cercodemas anceps” (Bioorg Med Chem Lett, 2015)",
  "format_in_all_cases": "functional, cell-based",
  "key": {"SK-MEL-2": {"test_system": "SK-MEL-2", "experiment": "Cytotoxicity against human SK-MEL-2 cells after 48 hrs by SRB assay", "details": "SK-MEL-2, 48 h"}, "LNCaP": {"test_system": "LNCaP", "experiment": "Cytotoxicity against human LNCAP cells after 48 hrs by SRB assay"}, "MCF7": {"test_system": "MCF7", "experiment": "Cytotoxicity against human MCF7 cells after 48 hrs by SRB assay", "details": "MCF7, 48 h"}, "KB": {"test_system": "KB", "experiment": "Cytotoxicity against human KB cells after 48 hrs by SRB assay"}, "HepG2": {"test_system": "HepG2", "experiment": "Cytotoxicity against human HepG2 cells after 48 hrs by SRB assay", "details": "HepG2, 48 h"}},
  "data": [
    {"smiles": "CO[C@@H]1[C@@H](O)[C@H](O[C@@H]2[C@@H](O)[C@H](O[C@H]3[C@H](O)[C@@H](O[C@@H]4OC[C@@H](O)[C@H](O)[C@H]4O)[C@H](O[C@H]4[C@H](O[C@H]5CC[C@]6(C)C7=CC[C@]89C(=O)O[C@@](C)(CCCC(C)C)[C@H]8C(=O)C[C@@]9(C)[C@@H]7CC[C@H]6C5(C)C)OC[C@@H](OS(=O)(=O)O)[C@@H]4O)O[C@@H]3C)O[C@H](COS(=O)(=O)O)[C@H]2O)O[C@H](CO)[C@H]1O", "values": [
      {"measurement": "IC50", "setting": "SK-MEL-2", "value": 110, "unit": "nM"},
      {"measurement": "IC50", "setting": "LNCaP", "value": 170, "unit": "nM"},
      {"measurement": "IC50", "setting": "MCF7", "value": 130, "unit": "nM"},
      {"measurement": "IC50", "setting": "KB", "value": 30, "unit": "nM"},
      {"measurement": "IC50", "setting": "HepG2", "value": 70, "unit": "nM"}
    ]},
    {"smiles": "C=C(C)CCC[C@]1(C)OC(=O)[C@]23CC=C4[C@@H](CC[C@H]5C(C)(C)[C@@H](O[C@@H]6OC[C@@H](OS(=O)(=O)O)[C@H](O)[C@H]6O[C@@H]6O[C@H](C)[C@@H](O[C@@H]7O[C@H](COS(=O)(=O)O)[C@@H](O)[C@H](O[C@@H]8O[C@H](CO)[C@@H](O)[C@H](OC)[C@H]8O)[C@H]7O)[C@H](O)[C@H]6O[C@@H]6OC[C@@H](O)[C@H](O)[C@H]6O)CC[C@]45C)[C@]2(C)CC(=O)[C@@H]31", "values": [
      {"measurement": "IC50", "setting": "SK-MEL-2", "value": 240, "unit": "nM"},
      {"measurement": "IC50", "setting": "LNCaP", "value": 230, "unit": "nM"},
      {"measurement": "IC50", "setting": "MCF7", "value": 200, "unit": "nM"},
      {"measurement": "IC50", "setting": "KB", "value": 40, "unit": "nM"},
      {"measurement": "IC50", "setting": "HepG2", "value": 70, "unit": "nM"}
    ]},
    {"smiles": "CC(C)CCC[C@]1(C)OC(=O)[C@]23CC=C4[C@@H](CC[C@H]5C(C)(C)[C@@H](O[C@@H]6OC[C@@H](OS(=O)(=O)O)[C@H](O)[C@H]6O[C@H]6O[C@H](C)[C@H](O[C@@H]7O[C@H](COS(=O)(=O)O)[C@@H](O)[C@H](O)[C@H]7O)[C@H](O)[C@H]6O)CC[C@]45C)[C@]2(C)CC(=O)[C@@H]31", "values": [
      {"measurement": "IC50", "setting": "SK-MEL-2", "value": 1470, "unit": "nM"},
      {"measurement": "IC50", "setting": "LNCaP", "value": 1190, "unit": "nM"},
      {"measurement": "IC50", "setting": "MCF7", "value": 560, "unit": "nM"},
      {"measurement": "IC50", "setting": "KB", "value": 250, "unit": "nM"},
      {"measurement": "IC50", "setting": "HepG2", "value": 970, "unit": "nM"}
    ]},
    {"smiles": "C=C(C)CCC[C@]1(C)OC(=O)[C@]23CC=C4[C@@H](CC[C@H]5C(C)(C)[C@@H](O[C@@H]6OC[C@@H](OS(=O)(=O)O)[C@H](O)[C@H]6O[C@H]6O[C@H](C)[C@H](O[C@@H]7O[C@H](COS(=O)(=O)O)[C@@H](O)[C@H](O)[C@H]7O)[C@H](O)[C@H]6O)CC[C@]45C)[C@]2(C)CC(=O)[C@@H]31", "values": [
      {"measurement": "IC50", "setting": "SK-MEL-2", "value": 1250, "unit": "nM"},
      {"measurement": "IC50", "setting": "LNCaP", "value": 1920, "unit": "nM"},
      {"measurement": "IC50", "setting": "MCF7", "value": 1030, "unit": "nM"},
      {"measurement": "IC50", "setting": "KB", "value": 320, "unit": "nM"},
      {"measurement": "IC50", "setting": "HepG2", "value": 4690, "unit": "nM"}
    ]},
    {"smiles": "CC(C)CCC[C@]1(C)OC(=O)[C@]23CC=C4[C@@H](CC[C@H]5C(C)(C)[C@@H](O[C@@H]6OC[C@@H](OS(=O)(=O)O)[C@H](O)[C@H]6O[C@H]6O[C@H](C)[C@@H](O)[C@H](O)[C@H]6O)CC[C@]45C)[C@]2(C)CC(=O)[C@@H]31", "values": [
      {"measurement": "IC50", "setting": "SK-MEL-2", "value": 4090, "unit": "nM"},
      {"measurement": "IC50", "setting": "LNCaP", "value": 2110, "unit": "nM"},
      {"measurement": "IC50", "setting": "MCF7", "value": 1090, "unit": "nM"},
      {"measurement": "IC50", "setting": "KB", "value": 480, "unit": "nM"},
      {"measurement": "IC50", "setting": "HepG2", "value": 2050, "unit": "nM"}
    ]},
    {"smiles": "C=C(C)CCC[C@]1(C)OC(=O)[C@]23CC=C4[C@@H](CC[C@H]5C(C)(C)[C@@H](O[C@@H]6OC[C@@H](OS(=O)(=O)O)[C@H](O)[C@H]6O[C@H]6O[C@H](C)[C@@H](O)[C@H](O)[C@H]6O)CC[C@]45C)[C@]2(C)CC(=O)[C@@H]31", "values": [
      {"measurement": "IC50", "setting": "SK-MEL-2", "value": 7360, "unit": "nM"},
      {"measurement": "IC50", "setting": "LNCaP", "value": 3300, "unit": "nM"},
      {"measurement": "IC50", "setting": "MCF7", "value": 1330, "unit": "nM"},
      {"measurement": "IC50", "setting": "KB", "value": 1370, "unit": "nM"},
      {"measurement": "IC50", "setting": "HepG2", "value": 6080, "unit": "nM"}
    ]},
    {"smiles": "CO[C@@H]1[C@@H](O)[C@H](O[C@@H]2[C@@H](O)[C@H](O[C@H]3[C@H](O)[C@@H](O)[C@H](O[C@H]4[C@H](O[C@H]5CC[C@]6(C)[C@H]7CC[C@]89C(=O)O[C@@](C)(CCC=C(C)C)[C@H]8[C@@H](OC(C)=O)C[C@@]9(C)C7=CC[C@H]6C5(C)C)OC[C@@H](OS(=O)(=O)O)[C@@H]4O)O[C@@H]3C)OC[C@H]2O)O[C@H](CO)[C@H]1O", "values": [
      {"measurement": "IC50", "setting": "SK-MEL-2", "value": 850, "unit": "nM"},
      {"measurement": "IC50", "setting": "LNCaP", "value": 1190, "unit": "nM"},
      {"measurement": "IC50", "setting": "MCF7", "value": 370, "unit": "nM"},
      {"measurement": "IC50", "setting": "KB", "value": 110, "unit": "nM"},
      {"measurement": "IC50", "setting": "HepG2", "value": 1160, "unit": "nM"}
    ]},
    {"smiles": "Cc1c2ccncc2c(C)c2c1[nH]c1ccccc12", "note": "[ELLIPTECINE]", "values": [
      {"measurement": "IC50", "setting": "SK-MEL-2", "value": 2150, "unit": "nM"},
      {"measurement": "IC50", "setting": "LNCaP", "value": 1990, "unit": "nM"},
      {"measurement": "IC50", "setting": "MCF7", "value": 1950, "unit": "nM"},
      {"measurement": "IC50", "setting": "KB", "value": 2070, "unit": "nM"},
      {"measurement": "IC50", "setting": "HepG2", "value": 1710, "unit": "nM"}
    ]}
  ]
}
